Reference: patent US20050250801A1, “Method of treating cancer with azaspirane compositions” (priority 2003, published 2005)
Read-outs that look alike come from different tables or passages of the source.

Key:
T84 cells = assay: Induction of apoptosis, DNA fragmentation analysis, T84; format: cell-based, human; conditions: 12 hours treatment
Description: T84, CaCo-2 and HUVEC cells, respectively, were grown in 100 mm dishes for 7-9 days, culture media for HUVEC was EGM-2 (Clonetics, BioWhitaker Co.), until they reached semi-confluency. Cell monolayers were then treated for 12 hours (CaCo-2 and T84) and 16 hours (HUVEC), respectively, at the indicated concentrations of N,N,-diethyl-8,8-dipropyl-2-azaspiro[4,5]decane-2-propanamine dimaleate (Compound 1) in culture media. Cells were collected by trypsinization and the apoptotic DNA was isolated from these cells following the instructions of the DNA fragmentation analysis kit (Boehringer Mannheim Corp., Indianapolis, Ind.). The apoptotic DNA was evaluated using 1.5% agarose gel electrophoresis followed by staining with ethidium bromide. M denotes the lane containing molecular weight markers of DNA.

HUVEC [1] = assay: HUVEC growth inhibition assay (crystal violet); format: cell-based; conditions: Homo sapiens, 72 hours, read-out: IC50 Concentration, Growth Inhibition
Description: HUVEC (1.5×10^3) are plated in a 96-well plate in 100 μl of EBM-2 (Clonetic # CC3162). After 24 hours (day 0), a test solution of Compound 1 (100 μl) is added to each well at 2× the desired concentration (5-7 concentration levels) in EBM-2 medium. On day 0, one plate is stained with 0.5% crystal violet in 20% methanol for 10 minutes, rinsed with water, and air-dried. The remaining plates are incubated for 72 hours at 37° C. After 72 hours, plates are stained with 0.5% crystal violet in 20% methanol, rinsed with water and air-dried. The stain is eluted with 1:1 solution of ethanol: 0.1 M sodium citrate (including day 0 plate), and absorbance is measured at 540 nm with an ELISA reader (Dyriatech Laboratories). Day 0 absorbance is subtracted from the 72 hour plates and data is plotted as percentage of control proliferation (vehicle treated cells).

SF-539 = assay: NCI in vitro SRB assay, CNS Cancer; format: cell-based; conditions: for GI50: Homo sapiens
Description: (§1) An in vitro assay which tested the ability of N,N,-diethyl-8,8-dipropyl-2-azaspiro[4,5]decane-2-propanamine dimaleate (Compound 1) to inhibit the growth of known cancer cell lines was performed by the National Cancer Institute in accordance with standard procedures. See: Lin, Z. X., Hoult, J. R., and Raman, A. Sulphorhodamine B assay for measuring proliferation of a pigmented melanocyte cell line and its application to the evaluation of crude drugs used in the treatment of vitiligo. J Ethnopharmacol. 66: 141-150, 1999. Briefly, selected tumor cell lines were cultured in media containing five different concentrations of Compound 1. After 48 hours of continuous exposure, a sulforhodamine B (SRB) assay was used to estimate cell viability or growth via optical measurements.
(§2) From the measurements, the following values were determined: 1) the concentration of Compound 1 at which a tumor cell growth inhibition of 50% (relative to control) occurs (GI50), 2) the concentration of Compound 1 at which no growth occurs (total growth inhibition, TGI), and 3) the concentration of Compound 1 at which the […] (LC 50). […] FIG. 6 illustrates, graphically, tumor cell growth as a function of Compound 1 concentration of the scanned tumor cell lines.

U251 = assay: NCI in vitro SRB assay, CNS Cancer; format: cell-based; conditions: for CC50 / GI50: Homo sapiens; for GI50: U-251
Description: as §1, §2

SF-295 = assay: NCI in vitro SRB assay, CNS Cancer; format: cell-based; conditions: for CC50 / GI50: Homo sapiens
Description: as §1, §2

SF-268 = assay: NCI in vitro SRB assay, CNS Cancer; format: cell-based; conditions: for CC50 / GI50: Homo sapiens
Description: as §1, §2

HUVEC [2] = assay: HUVEC cell migration assay (Boyden chamber); format: cell-based; conditions: Homo sapiens, 5 hours incubation, read-out: IC50 Concentration, Migration
Description: Migration is assessed using the 48-well Boyden chamber and 8 μm pore size collagen-coated (10 μg/ml rat tail collagen; Collaborative Laboratories) polycarbonate filters (Osmonics, Inc.). The bottom chamber wells receive 27-29 μl of Dulbecco's Modified Eagle Medium (“DMEM”) alone (baseline) or medium containing chemo-attractant (bFGF, VEGF or […] cell conditioned medium). The top chambers receive 45 μl of a HUVEC cell suspension (1×10^6 cells/ml) prepared in DMEM+1% Bovine Serum Albumin (“BSA”) with or without test compound. After 5 hours incubation at 37° C. the membrane is rinsed in Phosphate Buffer Saline (“PBS”), fixed and stained in Diff-Quick solutions. The filter is placed on a glass slide with the migrated cells facing down and cells on top are removed using a Kimwipe. The testing is performed in 4-6 replicates and five fields are counted from each well. Negative unstimulated control values are subtracted from stimulated control and drug treated values and data is plotted as mean migrated cell±Standard Deviation.

[3] = SF-295, Log10 conc -4.0 Moles/L
[4] = SF-295, Log10 conc -5.0 Moles/L
[5] = SF-295, Log10 conc -6.0 Moles/L
[6] = SF-295, Log10 conc -7.0 Moles/L
[7] = SF-295, Log10 conc -8.0 Moles/L
[8] = SF-268, Log10 conc -4.0 Moles/L
[9] = SF-268, Log10 conc -5.0 Moles/L
[10] = SF-268, Log10 conc -6.0 Moles/L
[11] = SF-268, Log10 conc -7.0 Moles/L
[12] = SF-268, Log10 conc -8.0 Moles/L

CCCC1(CCC)CCC2(CCN(CCCN(CC)CC)C2)CC1.O=C(O)/C=C\C(=O)O.O=C(O)/C=C\C(=O)O [Compound 1, N,N,-diethyl-8,8-dipropyl-2-azaspiro[4,5]decane-2-propanamine dimaleate]
DNA ladder formation (apoptosis) (T84 cells): formation of DNA laddering in a dose-dependent manner | IC50 (HUVEC [1]): 2.05 µM | Log10 TGI (SF-539): −5.50 | TGI (SF-539): 3.13 µM | GI50 (SF-539; read-out: GI50): 1.57 µM | GI50 (SF-539; read-out: Log10 GI50 (converted)): 1.58 µM | Mean Optical Densities (SF-539; Log10 conc -4.0 Moles/L): 0.033 | Percent Growth (SF-539; Log10 conc -4.0 Moles/L): −89% | Mean Optical Densities (SF-539; Log10 conc -5.0 Moles/L): 0.050 | Percent Growth (SF-539; Log10 conc -5.0 Moles/L): −84% | Mean Optical Densities (SF-539; Log10 conc -6.0 Moles/L): 0.559 | Percent Growth (SF-539; Log10 conc -6.0 Moles/L): 83% | Mean Optical Densities (SF-539; Log10 conc -7.0 Moles/L): 0.612 | Percent Growth (SF-539; Log10 conc -7.0 Moles/L): 100% | Mean Optical Densities (SF-539; Log10 conc -8.0 Moles/L): 0.591 | Percent Growth (SF-539; Log10 conc -8.0 Moles/L): 93% | CC50 (U251; U-251, read-out: LC50): 4.69 µM | CC50 (U251; U-251, read-out: Log10 LC50 (converted)): 4.68 µM | GI50 (U251; U251, read-out: GI50): 1.03 µM | GI50 (U251; U251, read-out: Log10 GI50 (converted)): 1.02 µM | Log10 TGI (U251; U251): −5.66 | TGI (U251; U251): 2.2 µM | Mean Optical Densities (U251; U251, Log10 conc -4.0 Moles/L): −0.042 | Percent Growth (U251; U251, Log10 conc -4.0 Moles/L): −100% | Mean Optical Densities (U251; U251, Log10 conc -5.0 Moles/L): −0.049 | Percent Growth (U251; U251, Log10 conc -5.0 Moles/L): −100% | Mean Optical Densities (U251; U251, Log10 conc -6.0 Moles/L): 0.602 | Percent Growth (U251; U251, Log10 conc -6.0 Moles/L): 52% | Mean Optical Densities (U251; U251, Log10 conc -7.0 Moles/L): 0.864 | Percent Growth (U251; U251, Log10 conc -7.0 Moles/L): 88% | Mean Optical Densities (U251; U251, Log10 conc -8.0 Moles/L): 0.885 | Percent Growth (U251; U251, Log10 conc -8.0 Moles/L): 90% | CC50 (SF-295; SF-295, read-out: LC50): 8.21 µM | CC50 (SF-295; SF-295, read-out: Log10 LC50 (converted)): 8.13 µM | GI50 (SF-295; SF-295, read-out: GI50): 1.93 µM | GI50 (SF-295; SF-295, read-out: Log10 GI50 (converted)): 1.95 µM | Log10 TGI (SF-295; SF-295): −5.40 | TGI (SF-295; SF-295): 3.98 µM | Mean Optical Densities (SF-295; [3]): 0.239 | Percent Growth (SF-295; [3]): −57% | Mean Optical Densities (SF-295; [4]): 0.202 | Percent Growth (SF-295; [4]): −64% | Mean Optical Densities (SF-295; [5]): 1.520 | Percent Growth (SF-295; [5]): 96% | Mean Optical Densities (SF-295; [6]): 1.653 | Percent Growth (SF-295; [6]): 109% | Mean Optical Densities (SF-295; [7]): 1.614 | Percent Growth (SF-295; [7]): 105% | CC50 (SF-268; SF-268, read-out: LC50): 5.8 µM | CC50 (SF-268; SF-268, read-out: Log10 LC50 (converted)): 5.75 µM | GI50 (SF-268; SF-268, read-out: GI50): 1.43 µM | GI50 (SF-268; SF-268, read-out: Log10 GI50 (converted)): 1.45 µM | Log10 TGI (SF-268; SF-268): −5.54 | TGI (SF-268; SF-268): 2.88 µM | Mean Optical Densities (SF-268; [8]): 0.058 | Percent Growth (SF-268; [8]): −80% | Mean Optical Densities (SF-268; [9]): 0.033 | Percent Growth (SF-268; [9]): −89% | Mean Optical Densities (SF-268; [10]): 1.004 | Percent Growth (SF-268; [10]): 75% | Mean Optical Densities (SF-268; [11]): 1.181 | Percent Growth (SF-268; [11]): 94% | Mean Optical Densities (SF-268; [12]): 1.193 | Percent Growth (SF-268; [12]): 95% | IC50 (HUVEC [2]): 0.53 µM
